The test system of the assay is skin. Put plainly: Effect of topical application of R-55 on skin of female volunteers. In kind it is in vivo, human. Conditions: two middle-aged Caucasian female volunteers, daily topical application, after about one month. The protocol:
A formulation for topical administration of R-55 (2-((4-(3-hydroxyphenyl)piperazin-1-yl)methyl)quinazolin-4-one) was prepared, comprising 10 mg/ml R-55.
A lipid-based phase was formed which consisted primarily of propylene glycol (a solvent of R-55 and penetration enhancer), along with Gelucire® 44/14 lauroyl macrogolglycerides (a solubilizer of R-55), Gelucire® 50/13 stearoyl macrogolglycerides (a sustained release agent), phosphatidyl choline (a surfactant), Labrasol® caprylocaproyl macrogolglycerides (a co-surfactant and penetration enhancer), Lauroglycol™ 90 (a solubilizer of R-55, co-surfactant and penetration enhancer), and vitamin E TPGS (a stabilizer). The ingredients were mixed by stirring at a temperature in a range of from 40° C. to 60° C. until the phosphatidyl choline and R-55 were completely dissolved, as indicated by obtaining a clear solution.
An aqueous solution of a carbomer (Carbopol® Ultrez 10) was added to the lipid-based phase with R-55 to obtain 100 grams of a suspension, which was stirred continuously at room temperature. A gel-like water-in-oil emulsion was formed, with relatively round aqueous droplets dispersed in a lipophilic phase, and the emulsion was stable for at least 2 weeks at room temperature. […]

Turning to `O=c1nc(CN2CCN(c3cccc(O)c3)CC2)[nH]c2ccccc12` [R-55, 2-((4-(3-hydroxyphenyl)piperazin-1-yl)methyl)quinazolin-4-one], the skin pigmentation entry (10 mg/ml R-55, face and behind the ear) is listed as “noticeably less pigmented”. Further, under “10 mg/ml R-55”, the skin appearance entry is listed as “overall fresher, younger appearance”.
